This data set is described as follows: solvent given as SMILES.

On to `Oc1ccc(/N=C/c2ccccc2Oc2ccccc2)cc1`, for which the emission maximum is listed as 410 nm (in C1CCCCC1); 414 nm (in C1COCCO1); 424 nm (in CC#N); 423 nm (in CC(C)=O); 410 nm (in CC(C)CO); 410 nm (in CCCCC). In addition, the emission maximum runs as follows: (in CCCCCC) 428 nm; (in CCCCCCCCO) 420 nm; (in CCCCCCCO) 413 nm; (in CCCCCCO) 413 nm; (in CCCCO) 419 nm; (in CCCCOC(C)=O) 410 nm. Moreover, the emission maximum (in CCCO) is on record as 415 nm; the emission maximum (in CCO) is 415 nm; the emission maximum (in CCOC(C)=O) is 412 nm; the emission maximum (in CCOCC) came out at 427 nm; the emission maximum (in CN(C)C=O) was 423 nm; the emission maximum (in CO) was 415 nm. Besides, the emission maximum runs as follows: (in CS(C)=O) 418 nm; (in Cc1ccccc1) 410 nm; (in Cc1ccccc1C) 414 nm; (in ClC(Cl)Cl) 415 nm; (in ClCCl) 414 nm; (in OCCO) 405 nm. Moreover, the emission maximum (in c1ccccc1) is recorded as 414 nm.

Where the note is “in CC#N”, `c1cc2c3c(cccc3c1)C(N1CCOCCOCCN(C3=Nc4cccc5cccc3c45)CCOCC1)=N2` gave an emission maximum of 590 nm.

For `c1cc2ccc3ccc(-c4ccc(-c5nnc(-c6ccc(-c7nnc(-c8ccc(-c9ccc%10ccc%11cccc%12ccc9c%10c%11%12)s8)o7)cc6)o5)s4)c4ccc(c1)c2c34`, the emission maximum came to 373 nm (in C1COCCO1); 398 nm (in CC#N); 373 nm (in CC(=O)N(C)C); 418 nm (in CCCCCCCCCCO); 393 nm (in CCCCCCCCO); 394 nm (in CCCCCCO). For the same compound, the emission maximum (in CCCCO) is 393 nm; the emission maximum (in CCO) stood at 393 nm; the emission maximum (in CS(C)=O) was determined as 374 nm; the emission maximum (in Cc1ccccc1) was 419 nm; the emission maximum (in ClC(Cl)Cl) was found to be 373 nm.

In turn, `O=C1CC(=O)Nc2cc(Br)ccc2N1` showed an emission maximum (in CS(C)=O) of 350 nm.

For the compound `C(#Cc1ccc(C#Cc2ccc(C#Cc3ccccc3)cc2)cc1)c1ccccc1`, the emission maximum (in ClC(Cl)Cl) is recorded as 387 nm.

As to `COc1cc2cc(/C=C/c3ccc(/C=C(\C#N)C(=O)O)cc3)c(=O)oc2cc1OC`, under “in CC#N”, the emission maximum is 483 nm.

Turning to `Clc1ccc(/C=C/c2nc3ccccc3o2)cc1`, the emission maximum reads like this: (in C1CCCCC1) 380 nm; (in CO) 385 nm.

Consider `CCn1c2ccccc2c2cc(C#Cc3cc(C#Cc4ccc5c(c4)c4ccccc4n5CC)nc(C#N)n3)ccc21`, for which the emission maximum by setting is: (in C1CCOC1) 495 nm; (in CCOC(C)=O) 494 nm; (in CN(C)C=O) 557 nm; (in Cc1ccccc1) 445 nm; (in ClCCl) 510 nm.

`CCCN1c2ccccc2Sc2cc(/C=C\c3cc(=O)oc4cc(O)ccc34)ccc21` gave an emission maximum (in ClC(Cl)Cl) of 631 nm.

For the compound `COC(=O)c1nc(-c2ccco2)oc1C`, the emission maximum runs as follows: (in C1CCCCC1) 302 nm; (in CC#N) 318 nm; (in CCO) 323 nm; (in CCOC(C)=O) 304 nm.

Where the note is “in ClCCl”, `c1ccc2c(c1)OB1Oc3ccccc3-c3c1c-2c1c2c3-c3ccccc3OB2Oc2ccccc2-1` yielded an emission maximum of 430 nm.

The compound `CCCCCCN1C(=O)c2cccc3c(-c4ccc(-c5cc(-c6ccc(Cl)cc6)nn5-c5ccccc5)s4)ccc(c23)C1=O` had an emission maximum (in ClCCl) of 519 nm.

Regarding `COc1ccc(N(c2ccccc2)c2ccc3ccc4c(N(c5ccccc5)c5ccc(OC)cc5)ccc5ccc2c3c54)cc1`, under “in ClCCl”, the emission maximum came to 513 nm.

`Nc1nc2ccccc2[n+]([O-])n1`: the emission maximum (in CC#N) came out at 478 nm and the emission maximum (in O) came out at 521 nm.

Under “in ClCCl”, `FC(F)(F)c1ccc(/C2=C3N=C(C(c4ccccc4)=C/3c3ccccc3)/C(c3ccc(C(F)(F)F)cc3)=c3\[nH]/c(c(-c4ccccc4)c3-c3ccccc3)=C(/c3ccc(C(F)(F)F)cc3)C3=N/C(=C(/c4ccc(C(F)(F)F)cc4)c4[nH]c2c(-c2ccccc2)c4-c2ccccc2)C(c2ccccc2)=C3c2ccccc2)cc1` registered an emission maximum of 730 nm.

Consider `CCCN1/C(=C/C=C(/C=C/C2=[N+](CCC)c3ccccc3C2(C)C)c2ccc([N+](=O)[O-])cc2)C(C)(C)c2ccccc21`, for which the emission maximum reads like this: (in CO) 656 nm; (in CS(C)=O) 664 nm; (in O) 663 nm.

Regarding `O=c1oc2cccc3c4cccc5ccc6c7cc(F)ccc7c1c(c23)c6c54`, the emission maximum (in C1CCOC1) was determined as 424 nm.

`[NH3+]c1ccc2ccc(O)cc2c1` returned an emission maximum (in O) of 357 nm.

Compound `N#Cc1ccc(/C=C/c2ccc(C=C(c3ccccc3)c3ccccc3)cc2)cc1` yielded an emission maximum (in C1CCOC1) of 456 nm.

`CCCCCCCCCCCCN1C(=O)c2c(c3ccc4cc(-c5ccc(OC)cc5)c(OC)cc4c3c3c2ccc2cc(-c4ccc(OC)cc4)c(OC)cc23)C1=O` showed an emission maximum (in ClCCl) of 532 nm.

In the case of `CCOC(=O)c1sc(-c2ccc(-c3cc(C4CC4)c(C(=O)OCC)s3)s2)cc1C1CC1`, the emission maximum (in ClCCl) is reported as 448 nm.

As to `CCN(CC)c1ccc2cc(-c3nc4c5cccc6ccc7cccc(c7c65)c4n3-c3ccc(C(C)(C)C)cc3)c(=O)oc2c1`, the emission maximum (in ClCCl) stood at 519 nm.

On to `c1csc(-c2c3ccc(=[N+]4CCCCC4)cc-3oc3cc(N4CCCCC4)ccc23)c1`, for which the emission maximum reads like this: (in CCO) 606 nm; (in ClCCl) 603 nm.

For `Cc1ccc2c(c1)C(C)(C)c1cc(C)ccc1N2c1ccc2c(c1)C(C)(C)c1cc(N3c4ccc(C)cc4C(C)(C)c4cc(C)ccc43)ccc1S2(=O)=O`, the emission maximum is, setting by setting: (in Cc1ccccc1) 470.07 nm; (in ClCCl) 538 nm.

Consider `O=P1(c2ccccc2)C(c2ccccc2)=Cc2ccccc21` (configuration not stated), for which the emission maximum (in C1CCOC1) is given as 417 nm and the emission maximum (in ClCCl) is recorded as 423 nm.

The compound `COc1ccc(C2=N/C(=C\c3ccc(C#N)cc3)C(=O)O2)cc1OC` showed an emission maximum (in C1COCCO1) of 489 nm.

Compound `CC1=[N+]2C(=Cc3c4c(cn3[B-]2(F)F)-c2nc-4c(-c3ccccc3)c3ccc([nH]3)c(-c3ccccc3)c3nc(c(-c4ccccc4)c4ccc([nH]4)c2-c2ccccc2)C=C3)C(C)C1` (configuration not stated) came in with an emission maximum (in ClCCl) of 693 nm.

Consider `CC1=C(/C=C/c2ccccc2)C2=Cc3c(/C=C/c4ccccc4)c(C)c(C)n3[B-](F)(F)[N+]2=C1C`, for which the emission maximum (in CC#N) came to 589 nm.

Under “in ClCCl”, `Fc1ccccc1-c1c2cc(Cl)ccc2nc2cc3ccccc3cc12` came in with an emission maximum of 526 nm.

Take `CN(C)c1ccc2c(-c3ccc(Br)cc3)c3ccc(=[N+](C)C)cc-3oc2c1`: the emission maximum (in CCO) stood at 579 nm.

Where the note is “in ClCCl”, `CCN(CC)c1ccc2c(-c3ccccc3C(=O)O)c3c([o+]c2c1)/C(=C/c1nc(-c2ccccc2)n2ccccc12)CCC3` returned an emission maximum of 746 nm.

With `Cc1ccc(-c2cc(/C=C/c3ccc(N(c4ccccc4)c4ccccc4)cc3)c(-c3ccc(C)cc3)cc2/C=C/c2ccc(N(c3ccccc3)c3ccccc3)cc2)cc1`, the emission maximum (in ClCCl) was 492 nm.

Compound `C[Si](C)(C)C#Cc1cccc2ccccc12` gave an emission maximum (in C1CCCCC1) of 336 nm.

On to `c1cncc(-c2ccc(-c3c4ccc(-c5cccnc5)cc4c(-c4ccc(-c5cccnc5)cc4)c4ccc(-c5cccnc5)cc34)cc2)c1`, for which, where the note is “in ClCCl”, the emission maximum worked out at 443 nm.

The values are drawn from the Deep4Chem optical property database.
